{"source": "patent US20180356397A1", "about": "“MIMICRY OF NEUROINFLAMMATORY MICROENVIRONMENTS AND METHODS OF USE AND MANUFACTURING THEREOF” (priority 2017, published 2018)", "key": {"[1]": {"system": "neutrophils co-cultured with A-beta activated microglia", "test": "neutrophil recruitment toward soluble A-beta activated microglia (co-culture in microfluidic device)", "type": "cell-based, human", "conditions": "microglia-derived chemokines by A-beta stimulation", "from_the_text": "Microglial cells are resident brain immune cells and stimulated by soluble A-beta42, which is a signature of human AD neurotoxic peptide. Based on our previous observation of neutrophil accumulation on A-beta plaques in in vivo, we hypothesize that A-beta activated microglial cells has a critical role in recruiting neutrophil. Stimulated microglial cells can release various types of chemokines and/or cytokines to increase inflammatory behavior or to clear A-beta in inflamed region. Furthermore, those secreted chemokines and/or cytokines can recruit other cell types including peripheral immune cells (FIG. 9A). To modulate this whole process, we established an in vitro AD brain-blood model (ADBBM) using microglia and neutrophil to mimic the brain microenvironment. To accommodate the different cells separately in a single microfluidic platform, we employed mechanically separated two chambers, which are connected through neutrophil specific migration channels (10×5×500 μm in width, height, and length) forming gradients of chemokines and/or cytokines (FIG. 9B).\nCompared to a parallel configuration having equal surface areas for cell loading and cell collection, the asymmetric configuration of the current microfluidic device 10 has a small central cell collecting compartment (central chamber 30), which is smaller than a large annular cell loading compartment (annular chamber 50) by a factor of 3, 4, 5, 6, 7, 8, 9, 10 or greater. […] This enhances the gradient formation and detection of recruitment. The long and thin migration channels 60 can block spontaneous entrance of inactivated neutrophil through mechanical constraints. Using this platform, we could culture microglial cells for extended periods to accumulate enough soluble factors and could observe neutrophil signature movement at single cell resolution, in real-time. Red membrane dye stained microglial cells plated first in central chamber 30 and incubated for 3 days with soluble A-beta to modulate chemokine/cytokine enriched AD microenvironment. Freshly isolated neutrophil labeled with green membrane dye plated on annular chamber 50 and incubated under microscope to observe their movement and accumulation in central chamber 30. Precise numbers of neutrophils are reproducibly loaded and uniformly distributed in annular chamber 50 and this design allows us to evaluate the response of neutrophil to various types of chemokines and/or cytokines. We tested 200 independent conditions at the same time, by using real time imaging of process in an array of twenty-five formatted on a single well plate 140 or an array of one-hundred nineteen formatted single well plate 140 (FIG. 7 and FIG. 8).\nTo validate the dependency of neutrophil migration toward soluble A-beta activated microglia, microglial cells plated on central chamber 30 with various cell numbers (5,000, 10,000, 20,000 cells). Microglial cells are pre-labeled with membrane dye according to manufacturer's protocol to observe their morphology change. After 24 hour incubation of microglia alone, prepared soluble A-beta (2.2 uM) with reduced 1% FBS Prigrowlll media were changed to incubate further for 48 hours. After 48 hours, freshly isolated neutrophil labeled with green membrane dye plated on annular chamber 50 and incubated on microscopic real time imaging chamber. Neutrophil (green) migration could be observed toward soluble A-beta activated microglia (red) cultured central chamber 30 after 6 hours (FIG. 11A). 2.4-, 1.2-times higher neutrophil migration could be observed in central chamber 30 in response to 10,000 and 20,000 cultured microglia in central chamber 30 by showing the dependency of neutrophil recruitment in cell numbers. […] By utilizing high-resolution and spatiotemporal controlled microscopic imaging method, we also can quantify the persistent movement of microglial cells in various stimulations. […]"}, "U87 glioma line": {"system": "U87 glioma line", "test": "glioma migration/invasiveness in microfluidic device, alone or in co-culture with microglia", "type": "cell-based", "conditions": "glioma cells cultured alone", "from_the_text": "Here, we reconstituted a microenvironment of boosted brain tumor invasion by inducing glioma migration by using EGF, a chemoattractant for glioma, and promoting the migration via the incorporation with microglia. We plated both glioma and microglia on the outer chamber and EGF in the central chamber, which are connected through migration channels (50×10×500 μm in width, height, and length) forming gradients of chemokines for glioma. We found PAI-1 is abundantly expressed on most glioma lines. Next, we culture the U87 glioma line, which has produced PAI-1, to investigate the hypothesis that glioma-secreted PAI-1 interacts with microglia to affect glioma migration. In co-culture with microglia in a microfluidic device, the invasiveness of PAI-1 expressing U87 cell lines was increased. […] This study has uncovered a mechanism by which glioma cells exploit microglia for increased invasiveness. Specifically, glioma-derived PAI-1 acts upon microglia, which then produces IL-6 to stimulate gliomas. The PAI-1/IL-6 loop is a potential therapeutic target for the currently incurable malignant gliomas."}}}
{"substance": "IL6: interleukin (IL)-6; microglia-derived cytokine, also used as recombinant protein", "values": [{"measurement": "recruiting of neutrophils in the recapitulated AD environment", "setting": "[1]", "result": "effective for recruiting neutrophils"}, {"measurement": "invasiveness of glioma cells", "setting": "U87 glioma line", "result": "enhanced the invasiveness"}]}
